Like-named read-outs stand apart in the source and are kept apart here. Residues, ends and D or L forms follow the SMILES beside them. Where only a bound is given, the exact number is not on record here.

By MBC is commonly meant the lowest tested concentration that kills the bacteria rather than only halting them. In general, MIC refers to the lowest concentration found to suppress growth.

One series deals with sheep erythrocytes. Format: cell-based. The following applies: red cells of sheep, 1 h. As for the experimental part: To determine if peptide variants were hemolytic, fresh defibrinated whole sheep blood (Hardy Diagnostics) was washed three times in cold PBS, and washed blood was diluted 1:25 in PBS. Treatments were applied at a 1:10 ratio of sample:blood, where the sample was either 10% Triton, PBS, or a specific peptide concentration corresponding to concentrations used in the MIC assays. Treatments were incubated with the blood for 1 h at 37°C. Following incubation, samples were centrifuged at […] for 10 min at 4°C, and the absorbance of the supernatants at 450 nm was measured on the Synergy H1 Microplate Reader to measure the release of hemoglobin. Percent hemolysis was quantified by normalizing to the negative and positive controls.

The next series deals with S. pyogenes (M1). Format: cell-based, Streptococcus pyogenes. As to conditions: for MBC: M1. As for the experimental part: (§1) Peptides were screened against Escherichia coli (BL21), Streptococcus pyogenes (M1T1 5448, hereby referred to as M1), Pseudomonas aeruginosa (PAO1), and Staphylococcus aureus (USA300). Overnight bacterial cultures were grown in optimal media for each species: Luria-Bertani (LB) broth for E. coli, P. aeruginosa, and S. aureus, and Todd-Hewitt (TH) broth for S. pyogenes. Cultures were pelleted and re-suspended in Mueller-Hinton (MH) broth for peptide screens or minimal inhibitory concentration (MIC) assays, with 1 × 10^6 CFU/mL bacteria added per well ([Wiegand et al., 2008]). MICs for each parent peptide were identified against each bacterial strain as previously described ([Fields et al., 2018]). Members of each peptide library were screened against each bacterial strain at half of the MIC of the corresponding parent peptide to identify library members with increased antimicrobial activity relative to the parent peptide. […] Minimal bactericidal concentrations (MBCs) were determined following the respective MIC assays by plating aliquots from wells corresponding to each peptide concentration from the 96-well plate used for the MIC on species-appropriate agar. Plates were incubated at 37°C overnight, and MBCs were identified as the lowest concentrations of peptide at which no colonies were obtained. A Synergy H1 Microplate Reader (BioTek, Winooski, VT, United States) was used to determine the MICs and identify peptides with greater antimicrobial activity than the corresponding parent peptide by measuring OD 600 of the bacterial cultures in 96-well microtiter plates.

A further series has as its system S. aureus (USA300). Format: cell-based, Staphylococcus aureus. As for the experimental part: as §1
The test system of a further series is E. coli (BL21). Format: cell-based, Escherichia coli. As for the experimental part: as §1
The next series deals with P. aeruginosa (PAO1). Format: cell-based, Pseudomonas aeruginosa. As to conditions: for MBC: PAO1; for MIC: PAO1, 16 h. The procedure:
as §1

`CC[C@H](C)[C@H](NC(=O)[C@H](CCCCN)NC(=O)[C@H](CCCCN)NC(=O)CNC(=O)[C@H](CCC(=O)O)NC(=O)[C@H](CC(N)=O)NC(=O)[C@@H](NC(=O)[C@@H](NC(=O)[C@H](CCCCN)NC(=O)[C@H](CCCCN)NC(=O)[C@H](CC(C)C)NC(=O)[C@H](CCCNC(=N)N)NC(=O)[C@H](CC(N)=O)NC(=O)[C@H](Cc1ccccc1)NC(=O)[C@@H](NC(=O)[C@H](CCCCN)NC(=O)[C@H](CCC(=O)O)NC(=O)[C@@H](NC(=O)[C@H](Cc1c[nH]c2ccccc12)NC(=O)[C@H](C)N)[C@@H](C)O)[C@@H](C)CC)[C@@H](C)O)[C@@H](C)CC)C(=O)N[C@@H](C)C(=O)N[C@@H](CCCCN)C(=O)N[C@@H](CCCNC(=N)N)C(=O)N[C@@H](C)C(=O)N[C@@H](Cc1c[nH]c2ccccc12)C(=O)O` [Syn-larvacin-40] (H-AWTEKIFNRLKKTINEGKKIAKRAW-OH; N-terminus and C-terminus assumed): in the series with sheep erythrocytes, the “Percent Hemolysis” value came out at 17.5%. Further, the MBC in the series with S. pyogenes (M1) turned out to be 4 µM; in the series with S. aureus (USA300) (USA300) it was 4 µM; in the series on E. coli (BL21) (BL21), 2 µM; with P. aeruginosa (PAO1) it was 16 µM. The MIC in the series with S. pyogenes (M1) (M1, 16 h) worked out at 0.25 µM; in the series on S. aureus (USA300) (USA300, 16 h), 4 µM; in the series on E. coli (BL21) (BL21, 16 h), 2 µM; in the series on P. aeruginosa (PAO1), 16 µM.

In the case of `CC[C@H](C)[C@H](NC(=O)[C@H](Cc1ccc(O)cc1)NC(=O)[C@H](CCCCN)NC(=O)[C@H](CCCCN)NC(=O)[C@H](CC(C)C)NC(=O)[C@H](CCC(=O)O)NC(=O)[C@H](CCCCN)NC(=O)[C@H](Cc1c[nH]c2ccccc12)NC(=O)[C@@H](NC(=O)[C@H](CCCNC(=N)N)NC(=O)[C@H](CCC(=O)O)NC(=O)[C@H](CO)NC(=O)CNC(=O)[C@H](C)N)[C@@H](C)CC)C(=O)N[C@@H](CCCCN)C(=O)N[C@@H](CCCCN)C(=O)NCC(=O)N[C@@H](CCCCN)C(=O)N[C@@H](CCCCN)C(=O)N[C@H](C(=O)N[C@H](C(=O)N[C@@H](CCCNC(=N)N)C(=O)N[C@@H](C)C(=O)N[C@@H](C)C(=O)N[C@@H](Cc1c[nH]c2ccccc12)C(=O)O)[C@@H](C)CC)C(C)C` [Syn-enterocin-24] (H-AGSERIWKELKKYIKKGKKVIRAAW-OH; N-terminus and C-terminus assumed), in the series with sheep erythrocytes, the “Percent Hemolysis” value is on record as 10.5%. Further, the MBC in the series with S. pyogenes (M1) was 16 µM; with S. aureus (USA300) (USA300), above 128 µM; in the series with E. coli (BL21) (BL21), 2 µM; with P. aeruginosa (PAO1) it was 16 µM. The MIC stood at 16 µM in the series on S. pyogenes (M1) (M1, 16 h); 64 µM in the series on S. aureus (USA300) (USA300, 16 h); 2 µM with E. coli (BL21) (BL21, 16 h); 8 µM in the series with P. aeruginosa (PAO1).

Regarding `CC[C@H](C)[C@H](NC(=O)[C@H](Cc1ccccc1)NC(=O)[C@H](C)NC(=O)[C@H](CCCCN)NC(=O)[C@H](CCCCN)NC(=O)[C@H](Cc1c[nH]c2ccccc12)NC(=O)[C@H](CCCNC(=N)N)NC(=O)[C@H](CCCCN)NC(=O)[C@H](CCCNC(=N)N)NC(=O)[C@H](CC(C)C)NC(=O)[C@H](CCC(=O)O)NC(=O)[C@H](CCC(=O)O)NC(=O)[C@H](CC(C)C)NC(=O)[C@H](CC(C)C)NC(=O)[C@H](Cc1ccc(O)cc1)NC(=O)[C@H](CCCCN)NC(=O)[C@@H](NC(=O)[C@H](CC(C)C)NC(=O)[C@H](C)NC(=O)[C@H](CCC(N)=O)NC(=O)[C@H](CCCNC(=N)N)NC(=O)CNC(=O)[C@H](C)N)[C@@H](C)O)C(=O)N[C@@H](C)C(=O)N[C@@H](Cc1c[nH]c2ccccc12)C(=O)O` [Syn-xiamencin-20] (H-AGRQALTKYLLEELRKRWKKAFIAW-OH; N-terminus and C-terminus assumed), the “Percent Hemolysis” value in the series with sheep erythrocytes stood at 10.5%. The MBC is 2 µM in the series with S. pyogenes (M1), 32 µM in the series on S. aureus (USA300) (USA300), 1 µM in the series with E. coli (BL21) (BL21) and 64 µM in the series with P. aeruginosa (PAO1). In addition, the MIC came to 2 µM in the series with S. pyogenes (M1) (M1, 16 h); 32 µM in the series on S. aureus (USA300) (USA300, 16 h); 1 µM in the series with E. coli (BL21) (BL21, 16 h); 64 µM with P. aeruginosa (PAO1).

In the case of `CC[C@H](C)[C@H](NC(=O)[C@H](CCCNC(=N)N)NC(=O)[C@H](CC(N)=O)NC(=O)[C@@H](NC(=O)CNC(=O)[C@H](C)N)[C@@H](C)O)C(=O)N[C@@H](C)C(=O)N[C@@H](CCCCN)C(=O)N[C@@H](CCC(=O)O)C(=O)N[C@@H](CC(C)C)C(=O)N[C@@H](CCCNC(=N)N)C(=O)N[C@@H](CCCNC(=N)N)C(=O)N[C@@H](Cc1ccc(O)cc1)C(=O)N[C@H](C(=O)N[C@@H](CCCNC(=N)N)C(=O)N[C@@H](CCCCN)C(=O)N[C@H](C(=O)NCC(=O)N[C@@H](CCCNC(=N)N)C(=O)N[C@H](C(=O)N[C@@H](CCCCN)C(=O)N[C@@H](CCCNC(=N)N)C(=O)N[C@@H](CCCCN)C(=O)N[C@@H](C)C(=O)N[C@@H](Cc1c[nH]c2ccccc12)C(=O)O)[C@@H](C)CC)C(C)C)[C@@H](C)CC` [Syn-sordellicin-80] (H-AGTNRIAKELRRYIRKVGRIKRKAW-OH; N-terminus and C-terminus assumed), in the series on sheep erythrocytes, the “Percent Hemolysis” value is reported as 11.3%. Further, the MBC came out at 2 µM in the series with S. pyogenes (M1), 64 µM in the series with S. aureus (USA300) (USA300), 0.5 µM with E. coli (BL21) (BL21) and 16 µM with P. aeruginosa (PAO1). Also, the MIC amounted to 2 µM in the series on S. pyogenes (M1) (M1, 16 h); 64 µM in the series with S. aureus (USA300) (USA300, 16 h); 0.25 µM in the series with E. coli (BL21) (E. coli BL21); 16 µM with P. aeruginosa (PAO1).

Turning to `CC[C@H](C)[C@H](NC(=O)[C@H](CCCCN)NC(=O)[C@H](CCCCN)NC(=O)CNC(=O)[C@H](CCC(=O)O)NC(=O)[C@H](CCC(N)=O)NC(=O)[C@@H](NC(=O)[C@@H](NC(=O)[C@H](CCCCN)NC(=O)[C@H](CCCCN)NC(=O)[C@H](CC(C)C)NC(=O)[C@H](CCCNC(=N)N)NC(=O)[C@H](CCC(N)=O)NC(=O)[C@H](Cc1ccccc1)NC(=O)[C@@H](NC(=O)[C@H](CCCCN)NC(=O)[C@H](CCC(=O)O)NC(=O)[C@@H](NC(=O)CNC(=O)[C@H](C)N)[C@@H](C)O)[C@@H](C)CC)[C@@H](C)O)[C@@H](C)CC)C(=O)N[C@@H](C)C(=O)N[C@@H](CCCCN)C(=O)N[C@@H](CCCNC(=N)N)C(=O)N[C@@H](Cc1c[nH]c2ccccc12)C(=O)N[C@@H](Cc1c[nH]c2ccccc12)C(=O)O` [Syn-larvacin-71] (H-AGTEKIFQRLKKTIQEGKKIAKRWW-OH; N-terminus and C-terminus assumed), the “Percent Hemolysis” value in the series on sheep erythrocytes came to 20.6%. Besides, the MBC in the series on S. pyogenes (M1) is 0.125 µM; in the series with S. aureus (USA300) (USA300), below 0.25 µM; with E. coli (BL21) (E. coli BL21), 0.25 µM; in the series with P. aeruginosa (PAO1) it was 32 µM. Further, the MIC in the series with S. pyogenes (M1) (S. pyogenes M1) was 0.125 µM; in the series with S. pyogenes (M1) (S. pyogenes M1, running text b43, unit printed nm) it was 0.125 µM; in the series on S. aureus (USA300) (USA300), 0.25 µM; in the series with S. aureus (USA300) (USA300, 16 h), below 0.25 µM; in the series on E. coli (BL21) (E. coli BL21), 0.25 µM; with P. aeruginosa (PAO1), 16 µM.

For the molecule `CC[C@H](C)[C@H](NC(=O)[C@H](CCCNC(=N)N)NC(=O)CNC(=O)[C@@H](NC(=O)[C@H](CCCCN)NC(=O)[C@H](CCCNC(=N)N)NC(=O)[C@@H](NC(=O)[C@H](Cc1ccc(O)cc1)NC(=O)[C@H](CCCNC(=N)N)NC(=O)[C@H](CCCNC(=N)N)NC(=O)[C@H](CC(C)C)NC(=O)[C@H](CCC(=O)O)NC(=O)[C@H](CCCCN)NC(=O)[C@H](C)NC(=O)[C@@H](NC(=O)[C@H](CCCNC(=N)N)NC(=O)[C@H](CC(N)=O)NC(=O)[C@@H](NC(=O)[C@H](CCCCN)NC(=O)[C@H](C)N)[C@@H](C)O)[C@@H](C)CC)[C@@H](C)CC)C(C)C)C(=O)N[C@@H](C)C(=O)N[C@@H](CCCNC(=N)N)C(=O)N[C@@H](CCCCN)C(=O)N[C@@H](C)C(=O)N[C@@H](Cc1c[nH]c2ccccc12)C(=O)O` [Syn-sordellicin-96] (H-AKTNRIAKELRRYIRKVGRIARKAW-OH; N-terminus and C-terminus assumed), the “Percent Hemolysis” value in the series on sheep erythrocytes amounted to 14.6%. Besides, the MBC came out at 0.5 µM in the series on S. pyogenes (M1), 32 µM in the series with S. aureus (USA300) (USA300), 0.25 µM in the series with E. coli (BL21) (E. coli BL21) and 16 µM with P. aeruginosa (PAO1). Further, the MIC in the series on S. pyogenes (M1) (M1, 16 h) is 0.5 µM; in the series with S. aureus (USA300) (USA300, 16 h), 32 µM; in the series on E. coli (BL21) (E. coli BL21), 0.25 µM; in the series with P. aeruginosa (PAO1) it was 8 µM.

(Values after article PMC7689250, “Synthetic Peptide Libraries Designed From a Minimal Alpha-Helical Domain of AS-48-Bacteriocin Homologs Exhibit Potent Antibacterial Activity” (Frontiers in Microbiology, 2020).)
